Assay results from paper PMC11982498 (Redox Biology, 2025).

Experiments:
[1] = system: VEGF gene transcription in SH-SY5Y cells; assay: Real-time RT-PCR in SH-SY5Y cells, VEGF; assay type: cell-based, human
Procedure: (§1) SH-SY5Y cells were treated with or without B14, and total RNA was subsequently isolated and purified. Reverse transcription was performed using a cDNA synthesis kit. The relative transcription levels of the genes were evaluated through quantitative real-time PCR using the SYBR Green-based method, as described in the Supplementary Date. Details regarding the primer sequences and the raw data can be found in Table S7 and Table S8.
(§2) ^a -∆∆Ct = -[(Ct value of genes in treated sample - Ct value of genes in control) - (Ct value of β-actin in treated sample - Ct value of β-actin in control)]. ^b F: The relative expression fold.
(§3) Experiment 1: SH-SY5Y cells were treated with different concentration of B14. The Ct values of BAX, VEGF, CMYC and BCL-2 were obtained.
(§4) Total RNA was extracted from cells and mice liver tissue using RNAiso Plus (Takara, 9109, Japan). Following sample homogenization, chloroform was added, and the solution was allowed to have phase separation into an upper aqueous layer (containing RNA), an interphase, and a lower organic layer (containing DNA and proteins). RNA was precipitated from the aqueous phase using isopropanol, while DNA was precipitated from the aqueous-organic interphase using ethanol. Complementary DNA (cDNA) was synthesized using the One-Step RT-PCR Kit (Takara, Cat#639503, Japan).
(§5) Quantitative real-time polymerase chain reaction (qRT-PCR) was performed using the 2× RealStar SYBR Mixture (GenStar, Cat# A301-10, Guangzhou, China) on a LightCycler 480 II real-time PCR system (Roche, USA). Data were analyzed using the 2^−ΔΔCt method. Actin served as the internal control, and relative mRNA levels were normalized accordingly.

APP/PS1 transgenic mice = assay: Open field test (OFT); assay type: in vivo; conditions: B14 10, 20, 40 mg/kg i.p. every other day
Excerpt: Five months old male APP/PS1 mice, weighing 25–33 g, were purchased from Guangdong Medical Laboratory Animal Center and housed in the Laboratory Animal Center of Sun Yat-sen University (Guangzhou, China) for experimentation. All procedures were approved by the Animal Care and Use Committee of Sun Yat-sen University and complied with legal requirements and national guidelines for the care and maintenance of laboratory animals (Approval No. SYSU-IACUC-2024-002032). The mice were housed in a specific pathogen-free environment with a controlled temperature of 22 ± 1 °C and a 12-h dark/light cycle. The mice were fed with a standard diet, and 30 mice were randomly divided into 6 groups (N = 5). Compound B14 was dissolved in saline and administered at doses of 10, 20, or 40 mg/kg. APP/PS1 male mice were grown until 6 months of age, and then injected intraperitoneally with compound B14 every other day for 60 days. Behavioral experiments were then conducted, and tissue specimens were collected for biochemical analysis.
The spatial memory and learning abilities of the mice were assessed using Morris water maze (MWM), novel object recognition (NOR) and nesting experiments (NBT). The anxiety and depressive behaviors were evaluated through the open field test (OFT) and elevated plus maze (EPM). Detailed experimental procedures are provided in the supplementary information. […]

[2] = system: BCL-2 gene transcription in brain of APP/PS1 mice; assay: Real-time RT-PCR of mice brain, BCL-2; assay type: in vivo; conditions: for F = 2^-∆∆Ct (relative expression fold), BCL-2: relative to WT
Procedure: Five months old male APP/PS1 mice, weighing 25–33 g, were purchased from Guangdong Medical Laboratory Animal Center and housed in the Laboratory Animal Center of Sun Yat-sen University (Guangzhou, China) for experimentation. […] The mice were housed in a specific pathogen-free environment with a controlled temperature of 22 ± 1 °C and a 12-h dark/light cycle. The mice were fed with a standard diet, and 30 mice were randomly divided into 6 groups (N = 5). […] Behavioral experiments were then conducted, and tissue specimens were collected for biochemical analysis.
as §2
Following sample homogenization, chloroform was added, and the solution was allowed to have phase separation into an upper aqueous layer (containing RNA), an interphase, and a lower organic layer (containing DNA and proteins). RNA was precipitated from the aqueous phase using isopropanol, while DNA was precipitated from the aqueous-organic interphase using ethanol.
as §5

[3] = system: BAX gene transcription in SH-SY5Y cells; assay: Real-time RT-PCR in SH-SY5Y cells, BAX; assay type: cell-based, human
Procedure: as §1, §2, §3, §4, §5

[4] = system: BCL-2 (BCL-2 IM) (DNA, i motif) CAGCCCCGCTCCCGCCCCCTTCCTCCCGCGCCCGCCCCT; assay: CD melting, 287 nm; conditions: K+ 100 mM KCl plus potassium phosphate; BPES buffer, pH 5.5; 20 μM B14 (DNA 1, 2 or 5 μM, prints disagree)
HK-2 cells = assay: MTT cytotoxicity assay, HK-2; assay type: cell-based; conditions: Homo sapiens, incubation for 48 h
Procedure: SH-SY5Y cells, HepG2 cells, HK-2 cells and HT-22 cells were seeded on 96-well plates (5.0×10^3 per well) with 100 μL of culture medium, and incubated for 12 h at 37 °C in a humidified atmosphere with 5% CO2, and then exposed to various concentrations of B14. After 48 h of treatment at 37 °C in a humidified atmosphere with 5% CO2, 100 μL of 0.5 mg/mL MTT solution was added to each well, and the mixture was further incubated for 4 h. The cells in each well were then treated with DMSO (200 μL for each well), and the culture medium was siphoned off, and the absorbance was recorded at 570 nm. All drug doses were parallel tested in triplicate, and the cytotoxicity was evaluated based on the percentage of cell survival in a dose-dependent manner regarding the negative control. The final IC50 values were determined by using Graph Pad Prism 9.0.

O=C(CCN1CCOCC1)Nc1ccc2c(c1)c(=O)c1cc(NC(=O)CCN3CCOCC3)ccc1n2-c1ccc2occc2c1 [Compound B14]
-∆∆Ct, VEGF ([1]; 6.25 μM B14): -0.01 | F = 2^-∆∆Ct (relative expression fold), VEGF ([1]; 6.25 μM B14): 1.00 | -∆∆Ct, VEGF ([1]; 12.5 μM B14): -0.01 | F = 2^-∆∆Ct (relative expression fold), VEGF ([1]; 12.5 μM B14): 1.00 | -∆∆Ct, VEGF ([1]; 25 μM B14): -0.03 | F = 2^-∆∆Ct (relative expression fold), VEGF ([1]; 25 μM B14): 1.02 | range and duration of activity (OFT) (APP/PS1 transgenic mice): significant improvement in the range and duration of activity | -∆∆Ct, BCL-2 ([2]; 10 mg/kg): 0.39 | F = 2^-∆∆Ct (relative expression fold), BCL-2 ([2]; 10 mg/kg): 0.76 | -∆∆Ct, BCL-2 ([2]; 20 mg/kg): 0.17 | F = 2^-∆∆Ct (relative expression fold), BCL-2 ([2]; 20 mg/kg): 0.88 | -∆∆Ct, BCL-2 ([2]; 40 mg/kg): -0.01 | F = 2^-∆∆Ct (relative expression fold), BCL-2 ([2]; 40 mg/kg): 1.00 | -∆∆Ct, BAX ([3]; 6.25 μM B14): -0.13 | F = 2^-∆∆Ct (relative expression fold), BAX ([3]; 6.25 μM B14): 1.09 | -∆∆Ct, BAX ([3]; 12.5 μM B14): 0 | F = 2^-∆∆Ct (relative expression fold), BAX ([3]; 12.5 μM B14): 1.00 | -∆∆Ct, BAX ([3]; 25 μM B14): -0.03 | F = 2^-∆∆Ct (relative expression fold), BAX ([3]; 25 μM B14): 1.02 | ΔTm [4]: 11.26 °C | IC50 (HK-2 cells): > 100 µM
